Measured values: patent US20170100433A1, “MODIFIED NATURAL KILLER CELLS HAVING ANTI-FUGETACTIC PROPERTIES AND USES THEREOF” (THE GENERAL HOSPITAL CORPORATION DBA MASSACHUSETTS GENERAL …, priority 2015, published 2017)

Tests used:
human CD3+ T cells [1] = details: T cells incubated with 0.01 μM to 10 mM AMD3100; anti-fugetactic at lower, fugetactic at higher concentrations; cells harvested after 3 h
Description: For quantitative transmigration assays, purified human CD3^+ T cells (approximately 2×10^4 cells) are added to the upper chamber of a Transwell® insert in each well, to a total volume of 150 μl of Iscove's modified medium. […] To determine the anti-fugetactic concentration of AMD3100, the T cells are incubated with 0.01 μM to 10 mM AMD3100 prior to addition to the chamber. Cells are harvested from the lower chamber after 3 h, and cell counts are performed using a hemocytometer.

human CD3+ T cells [2] = details: CI of 1.0 is the control, triplicate wells
Description: Freshly prepared and purified human CD3^+ T cells were prepared from healthy donor peripheral blood. 20,000 T cells were loaded into the upper chamber of the Transwell in control, chemotactic or fugetactic settings with AMD3100 at concentrations between 0.1 μM and 10 μM. Migrated cells were counted in the lower chamber and migration quantitated as previously described. Vianello et al. The Journal of Immunology, 2006, 176: 2902-2914; Righi et al., Cancer Res.; 71(16); 5522-34, each of which is incorporated herein in its entirety.
All wells were run in triplicate.

## c1cc(CN2CCCNCCNCCCNCC2)ccc1CN1CCCNCCNCCCNCC1 [AMD3100, 1,1′-[1,4-phenylenebis(methylene)]bis [1,4,8,11-tetraazacyclotetradecane]]
Human CD3+ T cells [1]
  Effect of AMD3100 pre-incubation on T cell migration: bimodal effect
Human CD3+ T cells [2]; chemotactic setting, AMD3100 at 1 μM, FIG. 1
  CI (chemotactic index), chemotactic response: 2.3
Human CD3+ T cells [2]; fugetactic setting, AMD3100 at 0.1 μM, FIG. 2
  CI (chemotactic index), fugetactic response: 1.6
